In publication PMC10179505, “Rivastigmine–Benzimidazole Hybrids as Promising Multitarget Metal-Modulating Compounds for Potential Treatment of Neurodegenerative Diseases” (International Journal of Molecular Sciences, 2023):
Read-outs that look alike come from different tables or passages of the source.

Legend:
Aβ42 [1] = conditions: cited from earlier work
Aβ42 [2] = conditions: cited from earlier work; remark: listed apart in the source
hMAO-A = target: T1, hMAO-A (Homo sapiens, UniProt P21397); test: hMAO-A inhibition (kynuramine to 4-hydroxyquinoline, microsomal recombinant enzyme); format: biochemical; conditions: for hMAO isoform selectivity: hMAO-A vs hMAO-B; for inhibition at 10 µM: read-out: % Inhibition (at 10 µM) hMAO-A
T1 construct: purchased Sigma-Aldrich Quimica S.A., Madrid, Spain; host or cells: insect cells (BTI-TN-5B1-4) infected with recombinant baculovirus
T1 sequence (P21397 1-527): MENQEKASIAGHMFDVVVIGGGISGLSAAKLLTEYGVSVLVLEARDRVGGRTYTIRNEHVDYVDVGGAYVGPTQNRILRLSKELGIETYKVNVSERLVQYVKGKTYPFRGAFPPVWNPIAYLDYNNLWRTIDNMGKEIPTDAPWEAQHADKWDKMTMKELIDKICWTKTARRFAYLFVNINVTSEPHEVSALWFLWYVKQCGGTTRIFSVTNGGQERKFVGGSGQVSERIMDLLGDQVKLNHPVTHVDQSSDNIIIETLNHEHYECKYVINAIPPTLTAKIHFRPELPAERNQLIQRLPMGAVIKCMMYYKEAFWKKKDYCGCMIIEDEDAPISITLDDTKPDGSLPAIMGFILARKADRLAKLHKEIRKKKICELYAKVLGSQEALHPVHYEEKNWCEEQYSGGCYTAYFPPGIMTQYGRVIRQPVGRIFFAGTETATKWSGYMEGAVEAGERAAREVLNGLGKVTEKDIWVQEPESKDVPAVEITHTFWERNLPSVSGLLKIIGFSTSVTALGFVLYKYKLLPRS
Experimental: (§1) The inhibitory activity of the rivastigmine hybrids (RIV–BIM) on hMAO-A and hMAO-B was studied using an experimental protocol described elsewhere with some modifications. The outlined hMAO inhibition was assessed in microsomal MAO isoforms prepared from insect cells (BTI-TN-5B1-4) infected with recombinant baculovirus containing cDNA inserts for hMAO-A or hMAO-B (Sigma-Aldrich Quimica S.A., Madrid, Spain) and by measuring the enzymatic conversion rates of kynuramine into 4-hydroxyquinoline. […] All assays were performed under sodium phosphate-buffered conditions (50 mM, pH = 7.4). […] Then, the reaction was started with the addition of hMAO-A or hMAO-B. Initial velocities were determined spectrophotometrically in a microplate reader (Biotek Synergy HT, Winooski, VT, USA) at 37 °C by measuring the formation of 4-hydroxyquinoline at 316 nm, over a period of at least 30 min (interval of 1 min). Data were analyzed using GraphPad PRISM version 6 for Windows (GraphPad Software®, San Diego, CA, USA). The initial velocities, obtained from the linear phase of product formation, were normalized and plotted against the respective inhibitor concentration. IC50 values were obtained from dose–response curves and were expressed as the mean ± standard deviation. IC50 values were determined from at least three independent experiments, each performed in triplicate.

SH-SY5Y cells = format: cell-based, human; conditions: for protection on MPP+-induced toxicity (cell viability, MTT): 1 µM compound, 1 h pre-incubation, then 0.5 mM MPP+ for 24 h
Experimental: SH-SY5Y human neuroblastoma cells were kept in culture under a humidified atmosphere of 5% CO2 at 37 °C in Dulbecco’s Modified Eagle Medium/Nutrient Mixture F-12 (DMEM/F-12) (Gibco, Thermo Fisher Scientific) supplemented with 10% heat-inactivated fetal bovine serum (FBS), 50 U/mL penicillin, and 50 μg/mL streptomycin. Cells were plated at a density of 1 × 10^5 cells/mL and pre-incubated for 1 h with the compounds by adding them to the medium at the following final concentrations: 1 µM for compounds 4a, 4b, and 5b; 2 µM for compounds 4c and 5a; and 3 µM for compound 4d. Then the cells were incubated for 24 h with MPP^+ (1-methyl-4-phenylpyridinium, Sigma-Aldrich) (1 h pre-incubation + 24 h incubation) at the final concentration of 0.5 mM. MPP^+ was freshly prepared in sterile water on the day of the experiment. The compounds were dissolved in DMSO, aliquoted, and stored at −20 °C; their toxicity was previously studied through cell viability assays to select the highest non-toxic concentration of each compound.
Cell viability was measured by the colorimetric MTT (3-(4,5-dimethylthiazol-2-yl)-2,5-diphenyltetrazolium bromide) reduction assay, which follows the principle that viable cells can metabolize MTT into formazan that absorbs light at 570 nm. After the cell treatments with the compounds and MPP^+, the culture medium was removed, 150 µL of MTT (0.5 mg/mL dissolved in sodium medium) was added to each well, and the 48-well plate was incubated at 37 °C for 2 h. The formazan precipitates were then solubilized with 150 µL of 0.04 M HCl/isopropanol. The absorbance was read at 570 nm using a spectrophotometer (Spectramax Plus 384), and cell viability results were normalized to untreated SH-SY5Y cells, with the means ± SEMs derived from six different experiments performed in duplicate (N = 6). Statistical analyses were performed on GraphPad Prism 8 (GraphPad Software, San Diego, CA, USA) using one-way analysis of variance (ANOVA) followed by Tukey’s post hoc test or using Student’s t-test to determine statistical significance.

hMAO-B = target: T2, hMAO-B (Homo sapiens, UniProt P27338); test: hMAO-B inhibition (kynuramine to 4-hydroxyquinoline, microsomal recombinant enzyme); format: biochemical
T2 construct: purchased Sigma-Aldrich Quimica S.A., Madrid, Spain; host or cells: insect cells (BTI-TN-5B1-4) infected with recombinant baculovirus
T2 sequence (P27338 1-520): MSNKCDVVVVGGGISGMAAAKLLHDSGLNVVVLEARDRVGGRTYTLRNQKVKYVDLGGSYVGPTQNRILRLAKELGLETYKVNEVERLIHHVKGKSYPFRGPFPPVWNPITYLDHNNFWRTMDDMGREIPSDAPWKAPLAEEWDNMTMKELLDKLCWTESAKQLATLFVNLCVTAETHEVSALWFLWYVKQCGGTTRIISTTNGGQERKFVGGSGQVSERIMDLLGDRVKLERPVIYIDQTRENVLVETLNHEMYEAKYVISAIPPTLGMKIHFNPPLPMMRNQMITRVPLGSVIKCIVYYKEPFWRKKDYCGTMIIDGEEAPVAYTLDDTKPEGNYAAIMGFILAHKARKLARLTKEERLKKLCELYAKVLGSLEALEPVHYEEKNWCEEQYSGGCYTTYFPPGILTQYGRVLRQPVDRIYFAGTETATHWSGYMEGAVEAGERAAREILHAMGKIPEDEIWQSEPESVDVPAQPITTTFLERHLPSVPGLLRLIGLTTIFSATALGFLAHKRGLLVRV
Experimental: as §1

[3] = Protonation constants by spectrophotometric titration (Psequad fitting); format: physicochemical; conditions: pH 7.4, CL = 1 × 10^−5 M
Experimental: To formulate the model for the metal chelation mechanism of compounds 4c and 5a, their protonation constants were first determined by spectrophotometric titrations in a 50% (w/w) DMSO/H2O medium by fitting the experimental data with the program Psequad. This working medium was adopted to perform all the equilibrium studies due to certain solubility problems of the compounds. Since the concentration of the compound used in cell studies is low (<7 μM), the final corresponding concentration of DMSO in culture media would be much lower (<1%) and also is not expected to induce modifications of biological tissues.
The two positional isomeric hybrids 4c and 5a were titrated, alone or in the presence of the metal ions, in a 50% w/w DMSO/H2O medium, at T = 25.0 ± 0.1 °C and ionic strength of (I) 0.1 M KCl, by using a 0.1 M KOH (50% w/w DMSO/H2O) titrant solution. The glass and Ag/AgCl reference electrodes were previously conditioned in different DMSO/H2O mixtures of increasing DMSO % compositions, and the response of the glass electrode was evaluated by strong acid–strong base (HCl/KOH) calibrations with the determination of the Nernst parameters by Gran’s method. […] Under these specified experimental conditions, the pKw value (14.95) was determined and subsequently used in the calculations. […]

[4] = Fe(III) complexation by spectrophotometric titration; format: physicochemical; conditions: for log βFemHhLl, global formation constant, species (102): FeL2 (102); for log βFemHhLl, global formation constant, species (102) / log βFemHhLl, global formation constant, species (103) / log βFemHhLl, global formation constant, species (101): T = 25.0 ± 0.1 °C, I = 0.1 M KCl, 50% w/w DMSO/water; for log βFemHhLl, global formation constant, species (103): FeL3 (103); for log βFemHhLl, global formation constant, species (101): FeL (101); for pM (pFe): pM = −log[M] at pH 7.4, CL/CM = 10, CM = 10^−6 M
Experimental: (§2) The metal complexation studies were performed by spectrophotometric titration, in the same 50% w/w DMSO/water medium used for both ligands alone, with fitting analysis of the UV-Vis spectra by Psequad. The calculated metal-chelating equilibrium models, included in Table 1, show good chelating capacity towards Cu(II) (pCu~10.3–13.6) and Fe(III) (pFe~16.8–17.4), involving complex species with a 1:1 to 1:2 or 1:1 to 1:3 M/L ratio, respectively. Metal coordination is expected to occur primarily through the phenolic oxygen and the imidazole nitrogen N(3) of the BIM moiety.
(§3) The two positional isomeric hybrids 4c and 5a were titrated, alone or in the presence of the metal ions, in a 50% w/w DMSO/H2O medium, at T = 25.0 ± 0.1 °C and ionic strength of (I) 0.1 M KCl, by using a 0.1 M KOH (50% w/w DMSO/H2O) titrant solution. The glass and Ag/AgCl reference electrodes were previously conditioned in different DMSO/H2O mixtures of increasing DMSO % compositions, and the response of the glass electrode was evaluated by strong acid–strong base (HCl/KOH) calibrations with the determination of the Nernst parameters by Gran’s method. […] The spectrophotometric measurements were carried out in a 250–450 nm (L, Cu/L systems) or 250–650 nm (L, Fe/L systems) wavelength range at pH ca 2.5–8.0. Under these specified experimental conditions, the pKw value (14.95) was determined and subsequently used in the calculations. The stepwise protonation constants of the ligands, Ki = [HiL]/[Hi−1L][H], and the overall metal–complex stability constants, βMmHhLl = [MmHhLl]/[M]^m[H]^h[L]^l, were calculated by fitting the spectrophotometric data with the Psequad program. The metal hydrolysis model was determined under the established experimental conditions (I = 0.1 M KCl, 50% w/w DMSO/H2O, T = 25.0 ± 0.1 °C) and the following values of stability constants were included in the equilibrium models related to the Fe(III)/L and Cu(II)/L systems: log βFeH−1 = −4.07, log βFeH−3 = −11.42; log βCu2H−2 = −9.99. The species distribution curves were obtained with the Hyss program.

[5] = Cu(II) complexation by spectrophotometric titration; format: physicochemical; conditions: for logβCumHhLl, global formation constant, species (1–11): CuH−1L (1–11); for logβCumHhLl, global formation constant, species (1–11) / logβCumHhLl, global formation constant, species (102) / logβCumHhLl, global formation constant, species (101): T = 25.0 ± 0.1 °C, I = 0.1 M KCl, 50% w/w DMSO/water; for logβCumHhLl, global formation constant, species (102): CuL2 (102); for logβCumHhLl, global formation constant, species (101): CuL (101); for Kd: calculated at pH 7.4, read-out: conditional dissociation constant (K’d) for the copper complex; for pM (pCu): pM = −log[M] at pH 7.4, CL/CM = 10, CM = 10^−6 M
Experimental: as §2, §3

[6] = absence of copper, 20 µM inhibitor, thioflavin-T fluorescence
[7] = presence of copper (40 µM), 20 µM inhibitor, thioflavin-T fluorescence

SMILES	IC50 (hMAO-A)	hMAO isoform selectivity (hMAO-A)	Aβ42 Self- Aggreg. Inhib. (Aβ42 [1]; [6])	inhibition at 10 µM (hMAO-B)	Aβ42 Cu-ind. Aggreg. Inhib. (Aβ42 [2]; [7])	inhibition at 10 µM (hMAO-A)	other results
COc1cc(/C=C/C(=O)CC(=O)/C=C/c2ccc(O)c(OC)c2)ccc1O [Curcumin, curcumin, reference compound]							Aβ42 Self- Aggreg. Inhib. (Aβ42 [1]): 65.7%; Aβ42 Cu-ind. Aggreg. Inhib. (Aβ42 [2]): 62.7%
CCN(C)C(=O)Oc1cccc(NC(=O)c2ccc3[nH]c(-c4ccccc4O)nc3c2)c1 [4a]	740 ± 70 nM	selective for isoform A	39.0%	28%	41.2%		protection on MPP+-induced toxicity (cell viability, MTT) (SH-SY5Y cells): significant protection
C[C@H](NCc1ccc(OCc2cccc(F)c2)cc1)C(N)=O [Safinamide, safinamide, reference compound]						13%	
CCN(C)C(=O)Oc1cccc(CNC(=O)c2cccc3[nH]c(-c4ccccc4O)nc23)c1 [5b]			58.7%	34%	60.8%	22%	protection on MPP+-induced toxicity (cell viability, MTT) (SH-SY5Y cells): significant protection
CCN(C)C(=O)Oc1cccc(CNC(=O)c2ccc3[nH]c(-c4ccccc4O)nc3c2)c1 [4b]	8600 ± 900 nM	selective for isoform A	39.6%	43%	48.8%		
CCN(C)C(=O)Oc1cccc(NC(=O)c2cccc3[nH]c(-c4ccccc4O)nc23)c1 [5a]			44.5%	31%	45.4%	33%	predominant neutral species HL [3]: 94.9%; log βFemHhLl, global formation constant, species (102) [4]: 23.82(4); log βFemHhLl, global formation constant, species (103) [4]: 30.20(8); log βFemHhLl, global formation constant, species (101) [4]: 12.53(5); pM (pFe) [4]: 17.4; logβCumHhLl, global formation constant, species (1–11) [5]: 3.82(8); logβCumHhLl, global formation constant, species (102) [5]: 20.43(5); logβCumHhLl, global formation constant, species (101) [5]: 11.30(2); Kd [5]: 0.098 nM; pM (pCu) [5]: 13.6
CCN(C)C(=O)Oc1cccc(CCNC(=O)c2ccc3[nH]c(-c4ccccc4O)nc3c2)c1 [4c]			21.2%	33%	22.0%	30%	predominant neutral species HL [3]: 97.4%; log βFemHhLl, global formation constant, species (102) [4]: 20.35(7); log βFemHhLl, global formation constant, species (103) [4]: 28.40(6); log βFemHhLl, global formation constant, species (101) [4]: 11.57(6); pM (pFe) [4]: 16.8; logβCumHhLl, global formation constant, species (1–11) [5]: 3.40(5); logβCumHhLl, global formation constant, species (102) [5]: 17.16(8); logβCumHhLl, global formation constant, species (101) [5]: 9.09(5); Kd [5]: 32 nM; pM (pCu) [5]: 10.3
C[n+]1ccc(-c2ccccc2)cc1 [MPP^+, 1-methyl-4-phenylpyridinium, reference compound]							decrease in cell viability compared with untreated cells (SH-SY5Y cells; MPP+ 0.5 mM, 24 h, MTT): approximately 30%
CCN(C)C(=O)Oc1ccc(CCCNC(=O)c2ccc3[nH]c(-c4ccccc4O)nc3c2)cc1 [4d]	11000 ± 1000 nM	selective for isoform A	20.1%	43%	21.3%		
